{"source": "paper PMC5524647", "about": "(Nature Communications, 2017)", "key": {"mAb 4C7 [1]": {"target": "mAb 4C7", "type": "binding, mouse", "conditions": "for Kd: read-out: K D of mAb 4C7 binding"}, "mAb 4C7 [2]": {"system": "mAb 4C7", "type": "binding, mouse"}, "mAb 3D11": {"system": "mAb 3D11", "type": "binding, mouse"}, "mAb 4C7 [3]": {"system": "mAb 4C7", "type": "binding, mouse", "remark": "listed apart in the source"}, "mAb 9C1-2": {"system": "mAb 9C1-2", "type": "binding, mouse"}, "[4]": {"system": "serum samples from culture-confirmed Thai melioidosis patients", "type": "binding, human"}, "mAb Pp-PS-W": {"system": "mAb Pp-PS-W", "type": "binding, mouse"}}, "note": "“Also recorded” adds a separate entry of the source.", "data": [{"smiles": "CC(=O)OC1C(OC2C(O)C(CO)OC(OCCCCCNC(=O)CCCCCNC(=O)CCCCC3SCC4NC(=O)NC43)C2O)OC(C)C(O)C1OC1OC(CO)C(O)C(O)C1O", "note": "(stereo not shown) [BIO-2]", "values": [{"measurement": "K D of mAb 4C7 binding", "setting": "mAb 4C7 [1]", "value": "no binding"}, {"measurement": "binding of mAb 4C7 according to sensorgrams", "setting": "mAb 4C7 [1]", "value": "did not interact"}]}, {"smiles": "COC1C(O)C(C)OC(OC2C(O)C(CO)OC(OCCCCCNC(=O)CCCCCNC(=O)CCCCC3SCC4NC(=O)NC43)C2O)C1OC(C)=O", "note": "(stereo not shown) [BIO-6]", "values": [{"measurement": "binding of mAb 4C7 according to sensorgrams", "setting": "mAb 4C7 [1]", "value": "bound"}, {"measurement": "Kd", "setting": "mAb 4C7 [1]", "value": 22, "unit": "nM"}]}, {"smiles": "COC1C(OC(C)=O)C(C)OC(OC2C(O)C(CO)OC(OCCCCCNC(=O)CCCCCNC(=O)CCCCC3SCC4NC(=O)NC43)C2O)C1OC(C)=O", "note": "(stereo not shown) [BIO-7]", "values": [{"measurement": "binding of mAb 4C7 according to sensorgrams", "setting": "mAb 4C7 [1]", "value": "bound"}, {"measurement": "Kd", "setting": "mAb 4C7 [1]", "value": 120, "unit": "nM"}]}, {"smiles": "COC1C(O)C(C)OC(OC2C(O)C(CO)OC(OCCCCCN)C2O)C1OC(C)=O", "note": "(stereo not shown) [disaccharide 6]", "values": [{"measurement": "reactivity with mAb 4C7 (ELISA)", "setting": "mAb 4C7 [2]", "value": "reacted strongly; also recorded: highest recognition"}, {"measurement": "reactivity with mAb 3D11 (ELISA)", "setting": "mAb 3D11", "value": "reacted strongly"}, {"measurement": "normalized STD effect, O-acetyl group", "setting": "mAb 4C7 [3]", "value": 97, "unit": "%"}, {"measurement": "normalized STD effect, glucose proton H3", "setting": "mAb 4C7 [3]", "value": "~60", "unit": "%"}, {"measurement": "normalized STD effect, talose H1", "setting": "mAb 4C7 [3]", "value": 96, "unit": "%"}, {"measurement": "normalized STD effect, talose H4", "setting": "mAb 4C7 [3]", "value": 88, "unit": "%"}, {"measurement": "normalized STD effect, talose proton at position 2", "setting": "mAb 4C7 [3]", "value": 100, "unit": "%"}, {"measurement": "normalized STD intensities, glucose protons at positions 4, 5, and 6", "setting": "mAb 4C7 [3]", "value": "< 50", "unit": "%"}, {"measurement": "reactivity with mAb 9C1-2 (ELISA)", "setting": "mAb 9C1-2", "value": "reacted strongly"}]}, {"smiles": "COC1C(OC(C)=O)C(C)OC(OC2C(O)C(CO)OC(OCCCCCN)C2O)C1OC(C)=O", "note": "(stereo not shown) [disaccharide 7]", "values": [{"measurement": "STD-NMR effects with mAb 4C7", "setting": "mAb 4C7 [3]", "value": "some STD enhancements were observed; also recorded: Low and not quantifiable STD effects"}, {"measurement": "STD-NMR signals with mAb 4C7", "setting": "mAb 4C7 [3]", "value": "did not show any signals"}, {"measurement": "reactivity of human immune serum samples with the coated antigen", "setting": "[4]", "value": "crossreact"}, {"measurement": "reactivity with mAb Pp-PS-W (ELISA)", "setting": "mAb Pp-PS-W", "value": "reacted strongly"}]}]}
